Data published in patent US5698567A, “Heterocyclic spiro compounds” (Adir Et Compagnie, priority 1995, dated 1997).
Counter-ions that a name gives are not always drawn.

Legend:
5-lipoxygenase [1] = test: Inhibition of the synthesis of LTB4 by the peritoneal PMN of rats in vitro (5-lipoxygenase-inhibiting activity); assay type: cell-based, rat; settings: rat peritoneal PMN, A23187 10^-6 M
Description: 1.1 Determination of 5-1ipoxygenase-inhibiting activity in vitro (see Goldyne M. E., Burrish G. F., Poubelle P. and Borgeat P., Arachidonic Acid Metabolism among human mononuclear leukocytes. The Journal of Biological Chemistry. Vol. 259, N° 4, p. 8815-8819, 1984, and New Chang C. and Gin Wensu. Stimulation of 5-Lipoxygenase Activity in Polymorphonuclear Leukocytes of Rats by Caseinate Treatment. Biochemical Pharmacology. Vol. 36, N° 8, p. 3033-3036, 1987).
(§1) 5-Lipoxygenase-inhibiting activity was determined on peritoneal leukocytes of rats. Leukocytosis is induced in male OFA rats (IFFA CREDO) weighing 200-250 g by the intraperitoneal injection of 12% sodium caseinate. 18 hours later, the cells are collected by washing the abdominal cavity. The number of cells is adjusted to 2×10^6 /ml.
(§2) The cell suspension is incubated for 10 minutes at 37° C. in the presence of Ca^2+ 5×10^-4 M and Mg^2+ 2×10^-3 M and of various concentrations of the test products. The cells are then stimulated with the calcium ionophore A23187 at a concentration of 10^-6 M for 5 minutes at 37° C. Controls are carded out by incubating the cells with the solvent for the products: 2% DMSO.
After stopping the reaction at +4° C. and centrifugation, the quantity of LTB4 in ng/2×10^6 cells in the supernatants is determined by the E.I.A. method (Statlergenes France). The percentage inhibition is calculated as follows: [formula]
(§3) Metabolism of arachidonic acid by the peritoneal PMN of rats stimulated
(§4) for 5 minutes in vitro by the calcium ionophore (A23187): 10^-6 M.
(§5) Incubation of the products with the cells for 10 minutes prior to
(§6) stimulation with the ionophore.

[2] = tested on: synthesis of PGE2 by the peritoneal PMN of rats; test: Inhibition of the synthesis of PGE2 by the peritoneal PMN of rats in vitro; assay type: cell-based, rat; settings: A23187; for inhibition at 100 µM: 10^-4 M; for inhibition at 100 µM / inhibition at 10 µM: rat peritoneal PMN; for inhibition at 10 µM: 10^-5 M; for IC50: rat peritoneal PMN in vitro
Procedure: as §1, §2, §3, §4, §5, §6

5-lipoxygenase [3] = test: Inhibition of the synthesis of LTB4 in total blood of rats ex vivo (5-lipoxygenase-inhibiting activity); design: species or system rat; settings: 60 μmol/kg p.o., 1 h; A23187 5 × 10^-5 M, n = 8
Procedure: 1.2 Determination of 5-lipoxygenase-inhibiting activity ex vivo (see Brideau C., Chan C., Charleson S., Denis D. et al. Pharmacology of MK-0591 (3-[1-(4-chlorobenzyl)-3-(t-butyl-thio)-5(quinolin-2-yl-methoxy)-indol-2-yl]-2,2-dimethyl propanoic acid), a Potent, Orally Active Leukotriene Biosynthesis Inhibitor. Can. J. Physiol. Pharmacol. Vol. 70, p. 799-807, 1992).
Inhibition of the biosynthesis of leukotrienes ex vivo following oral administration of the compounds was determined by studying the production of leukotrienes on total blood of rats stimulated in vitro by the calcium ionophore at time 1 hour after oral administration of the compounds.
The various products are administered in suspension in hydroxyethylcellulose: 0.5% H.E.C. at a dose of 60 μmol/kg. Each product is studied on a group of 8 different animals. A control group receives 0.5% H.E.C. only. After intracardial removal of the blood from each rat (male Sprague Dawley rats weighing 150-200 g IFFA CREDO), 1 ml of heparinised blood is incubated with the calcium ionophore A23 187 at a concentration of 5×10^-5 M for 10 minutes at 37° C. The blood is then centrifuged immediately and 100 μl of plasma are extracted in 400 μl of methanol. After centrifugation, the supernatant is evaporated to dryness under N2, the dry residue is taken up in buffer solution, and the LTB4 is assayed by the E.I.A. method (Stallergenes France).
The percentage inhibition is expressed as follows: [formula] 2/Results
Average relative to all controls n = 31
Products administered p.o. 1 hour before removal of blood n = 8
Total blood of rats stimulated for 10 minutes in vitro by the calcium

Row | SMILES | LTB4 % Inhibition (5-lipoxygenase [1]; 4.10^-8 M) [%] | LTB4 % Inhibition (5-lipoxygenase [1]; 10^-6 M) [%] | LTB4 % Inhibition (5-lipoxygenase [1]; 10^-7 M) [%] | LTB4 % Inhibition (5-lipoxygenase [1]; 10^-8 M) [%] | inhibition at 100 µM [2] [%] | inhibition at 10 µM [2] [%] | % Inhibition of the synthesis of LTB4 in total blood of rats ex vivo (5-lipoxygenase [3]) [%] | IC50 [2] [µM]
1 | O=C1NCC2(CCN(CC(c3ccccc3)c3ccc(OCc4ccc5ccccc5n4)cc3)CC2)O1 (racemic) [Example 6, (R,S)-8-{2-phenyl-2-[4-(quinol-2-ylmethoxy)phenyl]ethyl}-3,8-diaza-1-oxa-2-oxospiro[4,5]decane] | 60 | 100 | 93 | 21 | 88 | 3 | 64 | –
2 | O=C1NCC2(CCN(CC(c3ccc(Cl)cc3)c3ccc(OCc4ccc5ccccc5n4)cc3)CC2)O1 (racemic) [Example 8, (R,S)-8-{2-(4-chlorophenyl)-2-[4-(quinol-2-ylmethoxy)phenyl]ethyl}-3,8-diaza-1-oxa-2-oxospiro[4,5]decane dihydrochloride] | 85 | 100 | 100 | 22 | 72 | 32 | 46 | –
3 | O=C1NCC2(CCN(C(c3ccc(Cl)cc3)c3ccc(OCc4ccc5ccccc5n4)cc3)CC2)O1 (racemic) [Example 22, (R,S)-8-{(4-chlorophenyl)-[4-(quinol-2-ylmethoxy)phenyl]methyl}-3,8-diaza-1-oxa-2-oxospiro[4,5]decane dihydrochloride] | 76 | 100 | 97 | 18 | 4 | 6 | 17 | > 100
4 | O=C1NCC2(CCN(C(c3ccccc3)c3ccc(OCc4ccc5ccccc5n4)cc3)CC2)O1 (racemic) [Example 24, (R,S)-8-{phenyl-[4-(quinol-2-ylmethoxy)phenyl]methyl}-3,8-diaza-1-oxa-2-oxospiro[4,5]decane] | 56 | – | 100 | – | 44 | 19 | 41 | > 100
5 | O=C1NCC2(CCN(CC(Cc3ccccc3)c3ccc(OCc4ccc5ccccc5n4)cc3)CC2)O1 (racemic) [Example 32, (R,S)-8-{3-phenyl-2-[4-(quinol-2-ylmethoxy)phenyl]propyl}-3,8-diaza-1-oxa-2-oxospiro[4,5]decane] | 24 | 100 | 78 | – | 92 | – | 55 | –
6 | O=C1NCC2(CCN(CC(CCc3ccccc3)c3ccc(OCc4ccc5ccccc5n4)cc3)CC2)O1 (racemic) [Example 33, (R,S)-8-{4-phenyl-2-[4-(quinol-2-ylmethoxy)phenyl]butyl}-3,8-diaza-1-oxa-2-oxospiro[4,5]decane] | 54 | – | 86 | 6 | 94 | 7 | 48 | –
7 | O=C1NCC2(CCN(CC(Cc3ccc(Cl)cc3)c3ccc(OCc4ccc5ccccc5n4)cc3)CC2)O1 (racemic) [Example 34, (R,S)-8-{3-(4-chlorophenyl)-2-[4-(quinol-2-ylmethoxy)phenyl]propyl}-3,8-diaza-1-oxa-2-oxospiro[4,5]decane hydrochloride] | 56 | 100 | 72 | 12 | 6 | 2 | 58 | > 100
